Patent publication US20230416412A1, “PREVENTION OR MITIGATION OF T-CELL ENGAGING AGENT-RELATED ADVERSE EFFECTS” (Hoffmann-La Roche Inc., priority 2022, published 2023)

What was measured:
CD4+ and CD8+ T cells = assay: Whole blood assay: CD20-TCB-induced T cell activation, CD25 expression (flow cytometry); type: cell-based, human; conditions: 10 μM NLRP3 inhibitor, 24 hrs
Method: (§1) FIGS. 1A-1N. Effect of the NLRP3 inhibitor on CD20-TCB-mediated T cell activation, B cell depletion and cytokine release. Fresh whole blood from a healthy donor (donor 1) was incubated with escalating doses of CD20-TCB and 10 μM NLRP3 inhibitor. At 24 hrs, blood from technical replicates was pooled and lysed. FIG. 1A. The killing of CD19+ B cells was measured by flow cytometry. FIG. 1B and FIG. 1C. The expression of CD25 on CD4+ (1B) and CD8+ (1C) T cells was measured by flow cytometry. At 24 hrs, serum from technical replicates were collected and pooled. FIG. 1D-FIG. 1N. The levels of IFN-γ (1D), IL-2 (1E), IL-1β (1F), IL-1Ra (1G), TNF-α (1H), IP-10 (1I), IL-6 (1J), IL-8 (1K), MCP-1 (1L), MIP-1α (1M) and MIP-1β (1N) were measured by Luminex.
(§2) FIGS. 2A-2N. Effect of the NLRP3 inhibitor on CD20-TCB-mediated T cell activation, B cell depletion and cytokine release. Fresh whole blood from a healthy donor (donor 2) was incubated with escalating doses of CD20-TCB and 10 μM NLRP3 inhibitor. At 24 hrs, blood from technical replicates was pooled and lysed. FIG. 2A. The killing of CD19+ B cells was measured by flow cytometry. FIG. 2B and FIG. 2C. The expression of CD25 on CD4+ (FIG. 2B) and CD8+ (FIG. 2C) T cells was measured by flow cytometry. At 24 hrs, serum from technical replicates were collected and pooled. FIG. 2D-FIG. 2N. The levels of IFN-γ (2D), IL-2 (2E), IL-1β (2F), IL-1Ra (2G), TNF-α (2H), IP-10 (2I), IL-6 (2J), IL-8 (2K), MCP-1 (2L), MIP-1α (2M) and MIP-1β (2N) were measured by Luminex.
(§3) FIGS. 3A-3N. Effect of the NLRP3 inhibitor on CD20-TCB-mediated T cell activation, B cell depletion and cytokine release. Fresh whole blood from a healthy donor (donor 3) was incubated with escalating doses of CD20-TCB and […] NLRP3 inhibitor. At 24 hrs, blood from technical replicates was pooled and lysed. FIG. 3A. The killing of CD19+ B cells was measured by flow cytometry. FIG. 3B and FIG. 3C. The expression of CD25 on CD4+ (3B) and CD8+ (3C) T cells was measured by flow cytometry. At 24 hrs, serum from technical replicates were collected and pooled. FIG. 3D-FIG. 3N. The levels of IFN-γ (3D), IL-2 (3E), IL-1β (3F), IL-1Ra (3G), TNF-α (3H), IP-10 (3I), IL-6 (3J), IL-8 (3K), MCP-1 (3L), MIP-1α (3M) and MIP-1β (3N) were measured by Luminex.
(§4) To assess the effects of the NLRP3 inhibitor on TCB-mediated target cell killing and T cell activation, we conducted whole blood assays using fresh whole blood from 3 healthy donors incubated with escalating concentrations of CD20-TCB (SEQ ID NOs 4-23) in combination with 10 μM of the NLRP3 inhibitor (MCC950, Sigma-Aldrich). At 24 hrs, the killing of CD19+ B cells together with the expression of CD25 on CD4+ and CD8+ T cells was measured in whole blood by flow cytometry.

[1] = Body weight change after first CD20-TCB therapy; type: in vivo, humanized NSG mice; conditions: before and after the first CD20-TCB treatment, 20 mg/kg NLRP3 inhibitor i.p.
Method: FIG. 7. Effect of the NLRP3 inhibitor on body weight loss induced by the first CD20-TCB therapy. Treatment was performed as described in FIG. 4. The body weight of each animal was measured before and after the first therapy with CD20-TCB to calculate body weight change [%]. Means+/−SEM.
The effects of the NLRP3 inhibitor on anti-tumor efficacy and cytokine release mediated by CD20-TCB in vivo were evaluated using a diffused large B cell lymphoma (DLBCL) tumor model in humanized NSG mice. Briefly, humanized NSG mice were engrafted with OCI-LY18 tumor cells. When the tumor volume reached 200 mm^3, mice were randomized in groups of 14 based on their tumor size. […]
The levels of cytokines were measured in serum collected by tail-vein bleedings 3 hrs after the first treatment with CD20-TCB to determine the effects of the NLRP3 inhibitor on CD20-TCB-mediated cytokine release in vivo. […] In addition, the NLRP3 inhibitor modified the cytokine profile induced by CD20-TCB treatment, as indicated by the heat map showing the levels of IFN-γ, IL-2, TNF-α, […], IL-1Ra, IL-6, IL-8, MCP-1, MIP-1α and […] which were measured 3 hrs after the first treatment with CD20-TCB (FIG. 6). Last, we measured the body weight of each animal before and after the first treatment with CD20-TCB to calculate the body weight change. […]

cytokine release = assay: CD20-TCB-mediated cytokine release in vivo, serum cytokines by Luminex; design: species or system humanized NSG mice; conditions: 3 hrs after first CD20-TCB treatment
Method: FIGS. 5A-5E. Effect of the NLRP3 inhibitor on IL-2, IFN-γ, TNF-α, IL-1β, and IL-6 induced by CD20-TCB. Treatment was performed as described in FIG. 4. Blood was collected by tail-vein bleedings 3 hrs after the 1st CD20-TCB therapy. The levels of FIG. 5A. IL-2, FIG. 5B. IFN-γ, FIG. 5C. TNF-α, FIG. 5D. IL-1β, and FIG. 5E. IL-6 were measured in the serum by Luminex. Means of n=5 mice+/−SEM.
FIG. 6. Heatmap representing the effects of the NLRP3 inhibitor on CD20-TCB mediated cytokine release. Treatment was performed as described in FIG. 4. Blood was collected by tail-vein bleeding 3 hrs after the 1st CD20-TCB therapy. The levels of IFN-γ, IL-2, TNF-α, IP-10, IL-1β, IL-1Ra, IL-6, IL-8, MCP-1, MIP-1α and MIP-1β were measured in serum by Luminex for n=5 mice per group.
The effects of the NLRP3 inhibitor on anti-tumor efficacy and cytokine release mediated by CD20-TCB in vivo were evaluated using a diffused large B cell lymphoma (DLBCL) tumor model in humanized NSG mice. Briefly, humanized NSG mice were engrafted with OCI-LY18 tumor cells. When the tumor volume reached 200 mm^3, mice were randomized in groups of 14 based on their tumor size. They were then pre-treated with 30 mg/kg obinutuzumab (Gazyva® pre-treatment, GpT) 7 days before being treated with CD20-TCB to deplete peripheral B cells. The NLRP3 inhibitor was given 1 hr before and 4 and 24 hrs after the first CD20-TCB treatment as well as 1 hr before and 4 hrs after the second CD20-TCB treatment.
The levels of cytokines were measured in serum collected by tail-vein bleedings 3 hrs after the first treatment with CD20-TCB to determine the effects of the NLRP3 inhibitor on CD20-TCB-mediated cytokine release in vivo. In line with previous in vitro findings, the NLRP3 inhibitor retained IL-2, IFN-γ, TNF-α while reducing IL-6, IL-8 and IL-1β levels induced by CD20-TCB (FIGS. 5A-E, FIG. 6). In addition, the NLRP3 inhibitor modified the cytokine profile induced by CD20-TCB treatment, as indicated by the heat map showing the levels of IFN-γ, IL-2, TNF-α, […], IL-1Ra, IL-6, IL-8, MCP-1, MIP-1α and […] which were measured 3 hrs after the first treatment with CD20-TCB (FIG. 6). Last, we measured the body weight of each animal before and after the first treatment with CD20-TCB to calculate the body weight change. […] (FIG. 7).

CD19+ B cells = assay: Whole blood assay: CD20-TCB-induced killing of CD19+ B cells (flow cytometry); type: cell-based, human; conditions: 10 μM NLRP3 inhibitor, escalating CD20-TCB, fresh whole blood of 3 healthy donors, 24 hrs
Method: as §1
FIGS. 2A-2N. Effect of the NLRP3 inhibitor on CD20-TCB-mediated T cell activation, B cell depletion and cytokine release. […] The killing of CD19+ B cells was measured by flow cytometry. […] The expression of CD25 on CD4+ (FIG. 2B) and CD8+ (FIG. 2C) T cells was measured by flow cytometry. […] The levels of IFN-γ (2D), IL-2 (2E), IL-1β (2F), IL-1Ra (2G), TNF-α (2H), IP-10 (2I), IL-6 (2J), IL-8 (2K), MCP-1 (2L), MIP-1α (2M) and MIP-1β (2N) were measured by Luminex.
FIGS. 3A-3N. […] The killing of CD19+ B cells was measured by flow cytometry. […] The expression of CD25 on CD4+ (3B) and CD8+ (3C) T cells was measured by flow cytometry. […]

[2] = tested on: cytokine release in whole blood; assay: Whole blood assay: CD20-TCB-mediated cytokine release, serum cytokines by Luminex; type: cell-based, human
Method: as §1, §2, §3, §4
The levels of cytokines were measured by Luminex in the serum of whole blood treated with CD20-TCB in the presence and in the absence of the NLRP3 inhibitor to determine the effects of the NLRP3 inhibitor on cytokine release.

OCI-LY18 tumor cells = assay: Anti-tumor efficacy of CD20-TCB in DLBCL tumor model in humanized NSG mice; type: in vivo; conditions: 20 mg/kg NLRP3 inhibitor i.p.
Method: FIGS. 4A-4B. Effect of the NLRP3 inhibitor on CD20-TCB-mediated anti-tumor efficacy. OCI-Ly18-bearing humanized NSG mice were pre-treated with 30 mg/kg obinutuzumab (Gazyva® pre-treatment, Gpt, dotted black arrow) and then treated with escalating doses of CD20-TCB (black arrows, 0.5 mg/kg on the 1st treatment, 1 mg/kg on the 2nd treatment and 2 mg/kg on the 3rd treatment) by intravenous (i.v.) injections. 20 mg/kg NLRP3 inhibitor (grey arrows) was given by intraperitoneal injections 1 hr before, 4 hrs and 24 hrs after the 1st CD20-TCB therapy as well as 1 hr before and 4 hrs after the 2nd CD20-TCB therapy. FIG. 4A. Tumor growth inhibition curves, means−/+SD. Tumor volumes were calculated from caliper measurements conducted 2 or 3 times per week. FIG. 4B. […] Tumors were digested and the counts of CD8+ T cells were measured by flow cytometry.
The effects of the NLRP3 inhibitor on anti-tumor efficacy and cytokine release mediated by CD20-TCB in vivo were evaluated using a diffused large B cell lymphoma (DLBCL) tumor model in humanized NSG mice. […]
To assess the effects of the NLRP3 inhibitor on tumor growth, tumor volumes were calculated from caliper measurements twice or three times per week. Furthermore, the counts of CD8+ T cells were measured by flow cytometry in tumors collected 24 hrs after the third treatment with CD20-TCB.

[3] = 10 μM NLRP3 inhibitor with CD20-TCB, whole blood serum, 24 hrs, 3 donors
[4] = 10 μM NLRP3 inhibitor with CD20-TCB, whole blood serum, 24 hrs, in all 3 donors

With CC(C)(O)c1coc(S(=O)(=O)NC(=O)Nc2c3c(cc4c2CCC4)CCC3)c1 [NLRP3 inhibitor, MCC950] the “T cell activation induced by CD20-TCB” value (CD4+ and CD8+ T cells) was “did not interfere”, the “T cell activation induced by CD20-TCB” value (CD4+ and CD8+ T cells; listed as MCC950) was “retaining” and the “expression of the activation marker CD25 on CD4+ T cells” value (CD4+ and CD8+ T cells; escalating CD20-TCB, 3 donors) was “did not prevent”. The “expression of the activation marker CD25 on CD8+ T cells” value (CD4+ and CD8+ T cells; escalating CD20-TCB, 3 donors) was “did not prevent”, the “body weight loss induced by CD20-TCB” value [1] was “prevented body weight loss” and the “serum IFN-γ level induced by CD20-TCB” value (cytokine release; 20 mg/kg NLRP3 inhibitor i.p.) was “retained”. The “serum IL-1β level induced by CD20-TCB” value (cytokine release; 20 mg/kg NLRP3 inhibitor i.p.) was “reducing”, the “serum IL-2 level induced by CD20-TCB” value (cytokine release; 20 mg/kg NLRP3 inhibitor i.p.) was “retained” and the “serum IL-6 level induced by CD20-TCB” value (cytokine release; 20 mg/kg NLRP3 inhibitor i.p.) was “reducing”. For the same molecule, the “serum IL-8 level induced by CD20-TCB” value (cytokine release; 20 mg/kg NLRP3 inhibitor i.p.) was “reducing”, the “serum TNF-α level induced by CD20-TCB” value (cytokine release; 20 mg/kg NLRP3 inhibitor i.p.) was “retained” and the “cytokine profile induced by CD20-TCB treatment (heat map)” value (cytokine release; 11 cytokines in serum) was “modified”. For the same molecule, the “CD20-TCB-induced B cell depletion (percentage of CD19+ B cells among CD45+ cells)” value (CD19+ B cells) was “minimally interfered”, the “CD20-TCB-induced B cell depletion (percentage of CD19+ B cells among CD45+ cells)” value (CD19+ B cells; listed as MCC950) was “retaining” and the “level of IFN-γ” value [2, 3] was “did not influence”. The “level of IL-1Ra” value [2, 3] was “did not influence”, the “level of IL-2” value [2, 3] was “did not influence” and the “level of IP-10” value [2, 3] was “did not influence”. The “level of MCP-1” value [2, 3] was “did not influence”, the “level of MIP-1α” value [2, 3] was “did not influence” and the “level of MIP-1β” value [2, 3] was “did not influence”. The “level of TNF-α” value [2, 3] was “did not influence”, the “level of IL-6” value ([2]; 10 μM NLRP3 inhibitor with CD20-TCB, whole blood serum, 24 hrs, in 2 out of 3 donors) was “reduced” and the “level of IL-1β” value [2, 4] was “reduced”. For the same molecule, the “level of IL-8” value [2, 4] was “reduced”, the TCB-induced cytokine release ([2]; general statement) was “reduce” and the “anti-tumor efficacy mediated by CD20-TCB (tumor volume)” value (OCI-LY18 tumor cells; obinutuzumab pre-treatment, CD20-TCB 0.5, 1, 2 mg/kg i.v. weekly) was “did not interfere”. For the same molecule, the “CD8+ T cell infiltration in tumors” value (OCI-LY18 tumor cells; 24 hrs after the third CD20-TCB treatment, flow cytometry) was “did not interfere”.
